This assay addresses T1, human MCH-1R (Homo sapiens, UniProt Q99705).
T1 construct: expressed in transfected cells; host or cells: CHO-K1 (American Type Culture Collection), vector pEF/mic/cyto (Invitrogen)
Nature of the assay: MCH binding inhibition test ([125I]MCH binding to membranes of MCH-1R expressing CHO-K1 cells). Particulars: 50% inhibition concentration to the specific [125I]MCH binding; 50 pM [125I]MCH, membranes of MCH-1R expression CHO-K1 cells, 25° C., one hour, pH 7.4. An excerpt:
Pharmacological Test Example 1 (MCH Binding Inhibition Test)
A human MCH-1R encoding cDNA sequence [FEBS Letters, Vol. 398, 253 (1996); Biochimica et Biophisica Acta, Vol. 1401, 216 (1998)] was cloned to a plasmid vector pEF/mic/cyto (Invitrogen Corporation). The obtained expression vector was transfected to host cells CHO-K1 (American Type Culture Collection) using Lipofectamine Plus Reagent (Life Technology Inc.) to provide MCH-1R expression cells.
Membrane samples prepared from the MCH-1R expression cells were incubated with each test compound and 50 pM of [^125I]MCH (NEN Co.), in an assay buffer (50 mM Tris buffer comprising 10 mM magnesium chloride, 2 mM ethylenediamine tetraacetate, 0.01% bacitracin and 0.2% bovine serum albumin; pH 7.4) at 25° C. for an hour, followed by filtration through a glass filter GF/C (Wattman Co.). After washing the glass filter with 50 mM Tris buffer (pH 7.4) comprising 10 mM magnesium chloride, 2 mM ethylenediamine tetraacetate and 0.04% Tween-20, the radioactive activity on the glass filter was measured. The non-specific binding was measured in the presence of 1 μM human MCH and 50% inhibition concentration (IC50 value) of each test compound to the specific [^125I,]MCH binding was determined.

Counter-ions that a name gives are not always drawn.

T1 sequence (Q99705 whole entry): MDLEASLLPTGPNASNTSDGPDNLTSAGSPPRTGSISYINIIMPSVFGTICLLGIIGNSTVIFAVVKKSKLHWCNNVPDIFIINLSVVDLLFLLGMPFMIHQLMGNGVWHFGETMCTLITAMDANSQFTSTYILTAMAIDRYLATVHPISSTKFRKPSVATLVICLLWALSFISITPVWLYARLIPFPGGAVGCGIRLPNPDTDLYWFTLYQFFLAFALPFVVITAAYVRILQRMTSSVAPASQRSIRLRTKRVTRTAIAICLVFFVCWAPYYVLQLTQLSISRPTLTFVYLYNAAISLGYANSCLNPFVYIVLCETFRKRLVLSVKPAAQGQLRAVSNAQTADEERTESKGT

Compound `O=C(Nc1ccc(CN2CCOCC2)cc1)c1cc2cc(OCc3ccccc3)ccc2[nH]1` [Example 1-1, 5-(benzyloxy)-N-[4-(morpholinomethyl)phenyl]-1H-indole-2-carboxamide hydrochloride] displayed an IC50 of 9.6 nM.

With `CCN(CC)Cc1ccc(NC(=O)c2cc3cc(OCc4ccccc4)ccc3[nH]2)cc1` [Example 1-3, 5-(benzyloxy)-N-{4-[(diethylamino)methyl]phenyl}-1H-indole-2-carboxamide], the IC50 was determined as 5.6 nM.

On to `O=C(Nc1ccc(CN2CCCC2)cc1)c1cc2cc(OCc3ccccc3)ccc2[nH]1` [Example 2-6, 5-(benzyloxy)-N-[4-(1-pyrrolidinylmethyl)phenyl]-1H-indole-2-carboxamide trifluoroacetate], for which the IC50 turned out to be 2.6 nM.

On to `COCCN(C)Cc1ccc(NC(=O)c2cc3cc(OCc4ccccc4)ccc3[nH]2)cc1` [Example 2-10, 5-(benzyloxy)-N-(4-{[(2-methoxyethyl)(methyl)amino]methyl}phenyl)-1H-indole-2-carboxamide], for which the IC50 was found to be 4.6 nM.

By IC50 is commonly meant the concentration that inhibits the measured activity by half. High values mean weaker potency in that assay, low ones greater potency in that assay.

The record behind these values is patent publication US7531668B2, “2-arylcarboxamide-nitrogenous heterocycle compound” (Banyu Pharmaceutical Co., Ltd., priority 2004, dated 2009).
